According to ChEMBL document CHEMBL5034043, “Bifunctional Compounds as SMARCA2 Degraders for Treating Cancer” (ACS Med Chem Lett, 2022):

Target: SWI/SNF-related matrix-associated actin-dependent regulator of chromatin subfamily A member 2 (Homo sapiens, UniProt P51531)
Assay: Induction of degradation of HiBit-tagged SMARCA2 in human A549 cells incubated for 6 hrs by NanoGlo HiBiT lytic assay
Type: cell-based

SWI/SNF-related matrix-associated actin-dependent regulator of chromatin subfamily A member 2, sequence (P51531 whole entry): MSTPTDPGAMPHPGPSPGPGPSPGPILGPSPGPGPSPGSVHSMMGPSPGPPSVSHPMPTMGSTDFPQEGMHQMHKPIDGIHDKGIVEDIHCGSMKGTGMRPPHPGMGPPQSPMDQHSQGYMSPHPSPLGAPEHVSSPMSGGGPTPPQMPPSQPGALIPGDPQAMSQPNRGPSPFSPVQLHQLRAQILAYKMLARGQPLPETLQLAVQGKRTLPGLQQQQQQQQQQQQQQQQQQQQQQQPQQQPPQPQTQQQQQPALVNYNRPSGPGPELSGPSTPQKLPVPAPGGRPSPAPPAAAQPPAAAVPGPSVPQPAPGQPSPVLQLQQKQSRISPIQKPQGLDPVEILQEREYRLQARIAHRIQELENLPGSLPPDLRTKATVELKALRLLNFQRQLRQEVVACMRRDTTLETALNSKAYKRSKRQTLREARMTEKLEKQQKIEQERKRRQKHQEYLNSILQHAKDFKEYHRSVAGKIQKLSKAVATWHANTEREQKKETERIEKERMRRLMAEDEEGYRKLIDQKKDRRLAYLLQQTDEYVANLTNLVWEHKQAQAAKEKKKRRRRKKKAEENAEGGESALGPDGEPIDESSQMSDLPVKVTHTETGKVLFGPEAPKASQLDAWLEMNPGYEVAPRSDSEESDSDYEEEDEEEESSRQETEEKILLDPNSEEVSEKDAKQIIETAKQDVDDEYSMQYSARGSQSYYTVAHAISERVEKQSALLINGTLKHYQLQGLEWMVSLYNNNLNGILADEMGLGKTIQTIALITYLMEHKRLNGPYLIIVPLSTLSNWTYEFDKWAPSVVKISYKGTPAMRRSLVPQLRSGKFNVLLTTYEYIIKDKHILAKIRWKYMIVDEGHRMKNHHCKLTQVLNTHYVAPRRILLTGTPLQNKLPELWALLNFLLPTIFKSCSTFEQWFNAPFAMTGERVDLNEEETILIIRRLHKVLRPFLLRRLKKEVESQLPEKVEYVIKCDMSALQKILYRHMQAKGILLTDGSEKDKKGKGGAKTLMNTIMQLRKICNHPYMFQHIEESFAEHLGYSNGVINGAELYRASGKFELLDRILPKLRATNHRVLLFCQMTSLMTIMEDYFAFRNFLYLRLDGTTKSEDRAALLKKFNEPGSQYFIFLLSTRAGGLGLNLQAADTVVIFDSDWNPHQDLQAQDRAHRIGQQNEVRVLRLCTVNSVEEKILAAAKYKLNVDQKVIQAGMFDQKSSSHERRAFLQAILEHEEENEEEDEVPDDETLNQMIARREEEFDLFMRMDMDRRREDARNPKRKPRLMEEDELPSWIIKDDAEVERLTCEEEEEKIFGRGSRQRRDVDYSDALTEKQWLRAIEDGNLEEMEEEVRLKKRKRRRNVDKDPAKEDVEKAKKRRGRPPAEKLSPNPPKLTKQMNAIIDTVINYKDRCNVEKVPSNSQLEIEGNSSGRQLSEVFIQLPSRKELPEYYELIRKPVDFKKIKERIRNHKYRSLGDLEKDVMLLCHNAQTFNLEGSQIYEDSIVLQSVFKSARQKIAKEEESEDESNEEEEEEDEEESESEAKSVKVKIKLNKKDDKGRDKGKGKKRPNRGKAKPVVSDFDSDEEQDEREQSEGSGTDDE

| SMILES | DC50 [nM] |
| --- | --- |
| Nc1nnc(-c2cc(F)ccc2O)cc1N1CC2CCC(C1)N2c1cccc(CN2CCN(C(=O)C3CCN(c4ccc5c(c4)C(=O)N(C4CCC(=O)NC4=O)C5=O)CC3)CC2)c1 (stereo unspecified) | 3 |
| Nc1nnc(-c2ccccc2O)cc1N1CC(Oc2cccc(CN3CCN(C(=O)CN4CCC(c5ccc(NC6CCC(=O)NC6=O)cc5)CC4)CC3)c2)C1 (stereo unspecified) | 3 |
| Nc1nnc(-c2ccccc2O)cc1N1CC2CCC(C1)N2c1cccc(OCCN2CCN(CCCC3CCN(c4ccc5c(c4)C(=O)N(C4CCC(=O)NC4=O)C5=O)CC3)CC2)c1 (stereo unspecified) | 2 |
| Nc1nnc(-c2ccccc2O)cc1N1CCN(c2cccc(CN3CCN(C(=O)C4CCN(c5ccc6c(c5)C(=O)N(C5CCC(=O)NC5=O)C6=O)CC4)CC3)c2)C2(CC2)C1 (stereo unspecified) | 4 |
| Nc1nnc(-c2ccccc2O)cc1N1CC2CCC(C1)N2c1cccc(OCCN2CCN(CC3CCN(c4ccc5c(c4)C(=O)N(C4CCC(=O)NC4=O)C5=O)CC3)CC2)c1 (stereo unspecified) | 2 |
| Nc1nnc(-c2ccccc2O)cc1N1CCC(C(=O)N2CCC(C(=O)N3CCN(c4ccc(C5CCC(=O)NC5=O)cc4)CC3)CC2)(c2ccccc2)CC1 (stereo unspecified) | 3 |
